Data set [1] deals with non-small cell lung cancer (NSCLC) cell line NCI-H1299. The experiment in a line: CCK8 cell viability assay, NCI-H1299. It is filed as cell-based. As to conditions: Homo sapiens, NCI-H1299 cells, 72 h. The protocol: (§1) Acute lymphoblastic leukemia (ALL) cell line RS4;11 (2.5 × 10^4 cells per well), acute promyelocytic leukemia (APL) cell line NB4 (1 × 10^4 cells per well), and non-small cell lung cancer (NSCLC) cell line NCI-H1299 (1.5 × 10^3 cells per well) were seeded into 96-well plates. After treatment with different concentrations of drugs, the cells were incubated in quadruple for 72 h. Thereafter, a 10 μL CCK8 solution was added to each well. After a 3 h incubation at 37 °C, the plates were read for absorbance at 450 nm and 650 nm using a SpectraMax Molecular Devices microplate reader. The final data were calibrated by OD450 nm-OD650 nm. The inhibition rates of proliferation were calculated with the following equation:Inhibition ratio = (ODDMSO-ODCompd)/(ODDMSO-ODblank) × 100%.(1)
(§2) The concentrations of the compounds that inhibited cell growth by 50% (IC50) were calculated using GraphPad Prism version 5.0. NVP-2 was used as a positive control.

The target in the next data set is SHP1 (Homo sapiens, UniProt P29350). Nature of the data set: SHP1 enzyme assay (DiFMUP fluorogenic substrate), activation. Format: biochemical. The text has this: The SHP1-activating effects of the synthetic compounds were examined by the 6,8-difluoro-4-methylumbelliferyl phosphate (DiFMUP) assay.
(§3) The proteins SHP1 and SHP2, containing a GST-tag, were expressed in E. coli. 6,8-Difluoro-4-methylumbelliferyl phosphate (DiFMUP) was used as the fluorogenic substrate. Fluorescence data were collected by the Envision (PerkinElmer, Waltham, MA, USA) plate reader, using excitation and emission wavelengths of 358 and 455 nm, respectively. A sigmoidal dose-response curve was fitted to the data, and the EC50 values were calculated using GraphPad Prism. In the data processing, the fitting and curves were calculated using nonlinear regression, and the fold value of the compound was calculated using the software GraphPad Prism 8. The folds were obtained according to the equation: Y = Bottom + (Top-Bottom)/(1 + 10^((LogEC50-X) × HillSlope)). The data represent mean values ± standard error of the mean (SEM) of eight-point experiments, each performed in triplicates from three independent experiments.

The next data set has as its target T1, SHP2 (Homo sapiens, UniProt Q06124).
T1 sequence (Q06124 1-593): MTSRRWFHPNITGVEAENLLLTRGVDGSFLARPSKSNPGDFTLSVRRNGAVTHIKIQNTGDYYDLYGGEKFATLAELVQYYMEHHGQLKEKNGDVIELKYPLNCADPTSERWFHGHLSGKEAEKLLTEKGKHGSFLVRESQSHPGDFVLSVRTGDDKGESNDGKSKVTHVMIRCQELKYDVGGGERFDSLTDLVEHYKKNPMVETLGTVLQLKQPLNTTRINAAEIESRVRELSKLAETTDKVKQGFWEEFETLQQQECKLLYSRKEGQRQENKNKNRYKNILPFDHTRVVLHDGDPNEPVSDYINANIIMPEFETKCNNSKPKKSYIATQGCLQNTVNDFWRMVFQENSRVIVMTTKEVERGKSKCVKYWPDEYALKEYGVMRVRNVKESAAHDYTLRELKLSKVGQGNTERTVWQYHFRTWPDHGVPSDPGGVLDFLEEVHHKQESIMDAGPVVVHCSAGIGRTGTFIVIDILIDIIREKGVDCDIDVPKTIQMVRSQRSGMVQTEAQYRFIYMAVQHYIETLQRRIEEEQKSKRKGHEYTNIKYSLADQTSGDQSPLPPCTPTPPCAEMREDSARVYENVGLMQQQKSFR
The experiment in a line: SHP2 enzyme assay (DiFMUP fluorogenic substrate), activation. It is filed as biochemical. The protocol:
as §3

Data set [2] deals with acute promyelocytic leukemia (APL) cell line NB4. The experiment in a line: CCK8 cell viability assay, NB4. Format: cell-based. Conditions: Homo sapiens, NB-4, NB4 cells, 72 h. Here is the method: as §1, §2
Data set [3] deals with acute lymphoblastic leukemia (ALL) cell line RS4;11. Nature of the data set: CCK8 cell viability assay, RS4;11. As to conditions: Homo sapiens, RS4-11, 72 h, RS4;11 cells. Format: cell-based. The protocol:
as §1, §2
Background: Tetrazolium assays rely on reduction of a dye to a coloured formazan, in cell work by metabolically active cells.

The source of these data is article PMC10056611, “Synthesis and Biological Evaluation of 3-Amino-4,4-Dimethyl Lithocholic Acid Derivatives as Novel, Selective, and Cellularly Active Allosteric SHP1 Activators” (Molecules, 2023).

Sequence of SHP1 (P29350 whole entry): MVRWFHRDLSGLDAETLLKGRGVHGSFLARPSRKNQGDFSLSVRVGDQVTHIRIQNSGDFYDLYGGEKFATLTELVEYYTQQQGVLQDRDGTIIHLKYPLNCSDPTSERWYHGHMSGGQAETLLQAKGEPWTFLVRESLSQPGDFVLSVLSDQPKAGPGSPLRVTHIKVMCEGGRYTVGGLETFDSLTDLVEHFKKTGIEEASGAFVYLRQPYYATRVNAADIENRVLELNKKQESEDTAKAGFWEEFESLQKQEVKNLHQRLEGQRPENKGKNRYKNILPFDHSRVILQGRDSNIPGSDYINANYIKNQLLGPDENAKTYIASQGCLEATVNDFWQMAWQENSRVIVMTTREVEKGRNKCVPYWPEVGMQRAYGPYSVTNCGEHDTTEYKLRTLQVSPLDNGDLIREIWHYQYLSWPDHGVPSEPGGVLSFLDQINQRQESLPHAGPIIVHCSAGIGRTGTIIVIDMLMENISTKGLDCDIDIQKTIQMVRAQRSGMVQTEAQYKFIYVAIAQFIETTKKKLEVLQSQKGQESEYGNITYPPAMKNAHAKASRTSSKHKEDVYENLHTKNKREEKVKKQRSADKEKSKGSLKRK

`C[C@H](COc1ccc(NC(=O)Nc2ccc(Cl)c(C(F)(F)F)c2)cc1)[C@H]1CCC2C3CC=C4C(C)(C)C(N)CC[C@]4(C)C3CC[C@@]21C` (stereo partly drawn) [Compound 5ba] had a melting point of 197.1 to 198.6 °C. This compound had an IC50 in data set [1] of 5.51 ± 0.23 µM. On SHP1 (DiFMUP assay, mean ± SEM), the midpoint of the response, the EC50, lay at 1.54 ± 0.24 µM and the “Maximum Activation Fold” value turned out to be 7.63 ± 0.20 fold. In addition, on SHP1 (SHP1 EC50 ratio vs 5aw), the “increase in potency compared to 5aw” value is about 23 times. The same compound registered an EC50 at SHP2 (DiFMUP assay) of over 50 µM. The “selectivity for SHP1 over SHP2” value on SHP2 (ratio of EC50 values, SHP2 vs SHP1) is listed as “more than 32 fold”. Moreover, in data set [2], the IC50 turned out to be 3.74 ± 0.39 µM. Further, half-maximal inhibition in data set [3] (IC50) was put at 4 ± 0.22 µM.

For orientation: IC50 means the concentration needed to halve the response being measured. Read a low IC50 as higher potency. What is called EC50 is the midpoint of the concentration-response curve. Read a high EC50 as weaker potency. Broadly, the melting point is the temperature of the solid-liquid transition.
